Measured values reported in patent US5883243A, “Non-reducing saccharides, their preparations and uses” (Kabushiki Kaisha Hayashibara Seibutsu Kagaku Kenkyujo, priority 1997, dated 1999).

System: Streptococcus sobrinus ATCC 27351
Assay: Acid formation by dental caries-inducing microorganisms
Conditions: living wet cells, 0.02M saccharide, Stephen buffer pH 7.0, 37° C.

OC[C@H]1O[C@@](CO)(O[C@H]2O[C@H](CO)[C@@H](O)[C@H](O)[C@H]2O)[C@@H](O)[C@@H]1O [Sucrose, sucrose, reference compound]
pH at each fermentation time (min): 0 (0 min): 7.0 | pH at each fermentation time (min): 5 (5 min): 4.3 | pH at each fermentation time (min): 15 (15 min): 4.1 | pH at each fermentation time (min): 30 (30 min): 4.0 | pH at each fermentation time (min): 60 (60 min): 4.0 | pH at each fermentation time (min): 90 (90 min): 4.0
